Each block holds one compound with its values, some of them ahead of it.
Assays:
[1] = Experimental: Bioanalysis was performed using a fit-for-purpose LC-MS/MS method for the quantification of tenofovir in rat plasma samples. The calibration curve (CC) for the method consisted of nine non-zero calibration standards along with a double blank and zero standard samples. Study samples were analyzed along with three sets of quality control samples (18 QC samples; low, medium and high QC samples).
Plasma pharmacokinetic parameters were calculated using the non-compartmental analysis tool of Phoenix software (Version 6.3) and were determined from individual animals in each group. The peak plasma concentration (C), time to achieve peak plasma concentration (Tmax), the area under the plasma concentration-time curve (AUC0-t and AUCinf), AUC Extra (%), elimination half-life (T1/2), clearance (CL), volume of distribution Vd (L/kg) and Mean residence time (MRT) were calculated from intravenous group. The peak plasma concentration (C), time to achieve peak plasma concentration (T), AUC0-t and AUCinf, AUC Extra (%), Mean residence time (MRT) and absolute oral bioavailability (F) were calculated from the oral group.

Staphylococcus aurues = settings: cited from earlier work
[2] = cited from earlier work

CLF_Obs(PO) ([1]; rat plasma, 3 mg/kg PO): 405 ± 189 mL/min/kg
Compound: [2H]C1([2H])N=C(Nc2c(Cl)ccc3nsnc23)NC1([2H])[2H] [Tizanidine D4]

Compound: COc1ccc2cc3[n+](cc2c1OC)CCc1cc2c(cc1-3)OCO2 [berberine]
antimicrobial activity (Staphylococcus aurues; berberine alone, in solution): very weak | increase of antimicrobial activity of berberine (Staphylococcus aurues; in combination with 5-Methoxy hydnocarpin (5-MIC), against Staphylococcus aurues): 200 folds

Compound: Oc1ccc(C=Cc2cc(O)cc(O)c2)cc1 [resveratrol]
water solubility [2]: < 50 µg/mL

AUCINF ([1]; rat, in vivo, po, 3 mg/kg): 111 ± 20 ng·h/mL | AUClast ([1]; rat, in vivo, po, 3 mg/kg): 106 ± 17.7 ng·h/mL | Vz/F_obs(PO) ([1]; rat, in vivo, po, 3 mg/kg): 71.9 ± 36.1 L/kg
Compound: Tizanidine hydrochloride [Tizanidine HCl]

— US20220193043A1 (CIPLA LIMITED, priority 2019, published 2022)
